Read-outs that look alike come from different tables or passages of the source.
Legend:
Assay in all cases: biochemical
[1] = target: ABL1(T315I)-nonphosphorylated (Homo sapiens, UniProt P00519, T315I)
[2] = target: JAK1(JH2domain-pseudokinase) (Homo sapiens, UniProt P23458)
NEK3 = NEK3 (Homo sapiens, UniProt P51956)
NIM1 = NIM1 (Homo sapiens, UniProt Q8IY84)
PAK6 = PAK6 (Homo sapiens, UniProt Q9NQU5)
PDGFRA = PDGFRA (Homo sapiens, UniProt P16234)
PDGFRB = PDGFRB (Homo sapiens, UniProt P09619)
PIK3CA(E542K) = PIK3CA(E542K) (Homo sapiens, UniProt P42336, E542K)
PLK1 = PLK1 (Homo sapiens, UniProt P53350)
PLK1, sequence (P53350 whole entry): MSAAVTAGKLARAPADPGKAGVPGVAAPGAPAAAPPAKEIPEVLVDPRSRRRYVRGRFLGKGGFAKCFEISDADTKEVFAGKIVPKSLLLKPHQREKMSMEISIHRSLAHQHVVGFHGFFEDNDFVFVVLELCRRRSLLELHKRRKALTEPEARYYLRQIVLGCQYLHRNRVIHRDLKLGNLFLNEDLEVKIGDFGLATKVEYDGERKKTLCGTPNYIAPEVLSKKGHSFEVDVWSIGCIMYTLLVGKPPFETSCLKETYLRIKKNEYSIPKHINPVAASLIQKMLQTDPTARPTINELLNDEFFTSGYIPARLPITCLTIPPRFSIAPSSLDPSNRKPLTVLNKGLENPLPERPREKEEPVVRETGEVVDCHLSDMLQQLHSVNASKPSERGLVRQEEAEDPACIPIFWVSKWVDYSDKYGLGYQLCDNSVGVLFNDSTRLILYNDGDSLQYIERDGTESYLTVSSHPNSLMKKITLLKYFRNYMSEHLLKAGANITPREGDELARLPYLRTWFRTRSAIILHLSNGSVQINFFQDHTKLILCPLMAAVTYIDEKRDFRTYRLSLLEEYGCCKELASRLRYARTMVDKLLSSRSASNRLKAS

PRKCH = PRKCH (Homo sapiens, UniProt P24723)
PRKX = PRKX (Homo sapiens, UniProt P51817)
PRP4 = PRP4 (Homo sapiens, UniProt Q13523)
RET(M918T) = RET(M918T) (Homo sapiens, UniProt P07949, M918T)
RET(M918T), sequence (P07949 whole entry M918T): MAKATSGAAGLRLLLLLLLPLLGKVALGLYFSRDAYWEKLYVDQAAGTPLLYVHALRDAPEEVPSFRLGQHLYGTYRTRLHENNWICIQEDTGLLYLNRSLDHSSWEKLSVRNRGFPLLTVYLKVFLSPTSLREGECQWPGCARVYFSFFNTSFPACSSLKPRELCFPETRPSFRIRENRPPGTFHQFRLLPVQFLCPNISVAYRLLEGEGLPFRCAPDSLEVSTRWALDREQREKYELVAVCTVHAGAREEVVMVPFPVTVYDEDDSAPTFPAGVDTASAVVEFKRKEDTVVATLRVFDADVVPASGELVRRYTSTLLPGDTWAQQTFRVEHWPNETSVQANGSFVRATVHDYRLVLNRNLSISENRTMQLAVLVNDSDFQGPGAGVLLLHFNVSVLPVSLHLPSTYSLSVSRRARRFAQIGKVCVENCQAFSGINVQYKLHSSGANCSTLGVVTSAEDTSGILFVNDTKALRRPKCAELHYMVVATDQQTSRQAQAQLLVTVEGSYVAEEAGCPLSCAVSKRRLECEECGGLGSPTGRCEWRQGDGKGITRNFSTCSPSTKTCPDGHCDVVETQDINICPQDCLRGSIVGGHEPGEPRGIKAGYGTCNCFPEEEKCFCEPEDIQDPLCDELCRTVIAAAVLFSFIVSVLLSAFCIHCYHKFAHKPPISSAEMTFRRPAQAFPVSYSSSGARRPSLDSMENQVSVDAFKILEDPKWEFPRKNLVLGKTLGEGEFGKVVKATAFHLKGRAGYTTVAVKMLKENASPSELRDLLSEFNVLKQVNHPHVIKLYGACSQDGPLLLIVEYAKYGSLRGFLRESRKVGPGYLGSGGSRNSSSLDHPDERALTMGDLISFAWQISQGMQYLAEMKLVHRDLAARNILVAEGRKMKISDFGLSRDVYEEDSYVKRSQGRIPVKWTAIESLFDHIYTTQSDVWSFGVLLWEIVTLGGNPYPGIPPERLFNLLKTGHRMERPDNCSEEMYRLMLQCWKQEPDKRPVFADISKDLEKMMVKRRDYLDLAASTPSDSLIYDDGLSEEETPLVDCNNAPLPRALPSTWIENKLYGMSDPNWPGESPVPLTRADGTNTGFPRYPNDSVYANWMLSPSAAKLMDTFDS

RET(V804M) = RET(V804M) (Homo sapiens, UniProt P07949, V804M)
RET(V804M), sequence (P07949 whole entry V804M): as the sequence (P07949 whole entry M918T) above, with V804M, T918M counted along it

RIPK1 = RIPK1 (Homo sapiens, UniProt Q13546)
RIPK4 = RIPK4 (Homo sapiens, UniProt P57078)
RSK3 = RSK3 (Homo sapiens, UniProt Q15349)
RSK3, sequence (Q15349 whole entry): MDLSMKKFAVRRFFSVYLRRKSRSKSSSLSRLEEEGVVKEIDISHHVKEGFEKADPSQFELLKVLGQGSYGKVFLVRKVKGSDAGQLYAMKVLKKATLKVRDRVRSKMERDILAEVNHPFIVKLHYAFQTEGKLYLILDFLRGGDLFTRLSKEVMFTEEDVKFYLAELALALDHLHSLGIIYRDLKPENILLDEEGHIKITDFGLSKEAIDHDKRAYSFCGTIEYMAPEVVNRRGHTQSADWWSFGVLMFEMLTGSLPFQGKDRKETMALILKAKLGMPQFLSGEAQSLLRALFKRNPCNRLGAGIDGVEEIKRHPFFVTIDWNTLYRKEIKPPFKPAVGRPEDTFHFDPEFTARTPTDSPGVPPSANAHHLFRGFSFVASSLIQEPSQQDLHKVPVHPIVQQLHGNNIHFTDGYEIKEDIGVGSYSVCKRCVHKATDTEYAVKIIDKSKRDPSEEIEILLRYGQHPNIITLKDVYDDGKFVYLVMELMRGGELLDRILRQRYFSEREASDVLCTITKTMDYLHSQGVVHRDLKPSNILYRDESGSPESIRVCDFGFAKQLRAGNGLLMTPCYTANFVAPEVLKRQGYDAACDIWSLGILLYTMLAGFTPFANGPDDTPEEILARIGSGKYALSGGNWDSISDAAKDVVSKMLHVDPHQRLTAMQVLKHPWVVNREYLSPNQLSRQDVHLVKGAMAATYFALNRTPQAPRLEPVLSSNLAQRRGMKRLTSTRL

SBK1 = SBK1 (Homo sapiens, UniProt Q52WX2)
SBK1, sequence (Q52WX2 whole entry): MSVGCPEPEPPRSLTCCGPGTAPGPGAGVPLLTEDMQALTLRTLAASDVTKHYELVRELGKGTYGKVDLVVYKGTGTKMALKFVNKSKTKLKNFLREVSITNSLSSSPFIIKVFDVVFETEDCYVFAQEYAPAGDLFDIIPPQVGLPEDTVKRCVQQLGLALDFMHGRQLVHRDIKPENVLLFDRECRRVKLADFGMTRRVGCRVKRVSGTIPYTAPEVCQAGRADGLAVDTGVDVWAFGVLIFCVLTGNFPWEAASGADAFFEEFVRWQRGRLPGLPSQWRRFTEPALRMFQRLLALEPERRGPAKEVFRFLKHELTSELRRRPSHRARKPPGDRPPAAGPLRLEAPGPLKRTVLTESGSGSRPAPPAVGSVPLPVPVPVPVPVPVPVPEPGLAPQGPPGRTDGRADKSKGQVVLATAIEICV

SGK3 = SGK3 (Homo sapiens, UniProt Q96BR1)
SIK2 = SIK2 (Homo sapiens, UniProt Q9H0K1)
SIK2, sequence (Q9H0K1 whole entry): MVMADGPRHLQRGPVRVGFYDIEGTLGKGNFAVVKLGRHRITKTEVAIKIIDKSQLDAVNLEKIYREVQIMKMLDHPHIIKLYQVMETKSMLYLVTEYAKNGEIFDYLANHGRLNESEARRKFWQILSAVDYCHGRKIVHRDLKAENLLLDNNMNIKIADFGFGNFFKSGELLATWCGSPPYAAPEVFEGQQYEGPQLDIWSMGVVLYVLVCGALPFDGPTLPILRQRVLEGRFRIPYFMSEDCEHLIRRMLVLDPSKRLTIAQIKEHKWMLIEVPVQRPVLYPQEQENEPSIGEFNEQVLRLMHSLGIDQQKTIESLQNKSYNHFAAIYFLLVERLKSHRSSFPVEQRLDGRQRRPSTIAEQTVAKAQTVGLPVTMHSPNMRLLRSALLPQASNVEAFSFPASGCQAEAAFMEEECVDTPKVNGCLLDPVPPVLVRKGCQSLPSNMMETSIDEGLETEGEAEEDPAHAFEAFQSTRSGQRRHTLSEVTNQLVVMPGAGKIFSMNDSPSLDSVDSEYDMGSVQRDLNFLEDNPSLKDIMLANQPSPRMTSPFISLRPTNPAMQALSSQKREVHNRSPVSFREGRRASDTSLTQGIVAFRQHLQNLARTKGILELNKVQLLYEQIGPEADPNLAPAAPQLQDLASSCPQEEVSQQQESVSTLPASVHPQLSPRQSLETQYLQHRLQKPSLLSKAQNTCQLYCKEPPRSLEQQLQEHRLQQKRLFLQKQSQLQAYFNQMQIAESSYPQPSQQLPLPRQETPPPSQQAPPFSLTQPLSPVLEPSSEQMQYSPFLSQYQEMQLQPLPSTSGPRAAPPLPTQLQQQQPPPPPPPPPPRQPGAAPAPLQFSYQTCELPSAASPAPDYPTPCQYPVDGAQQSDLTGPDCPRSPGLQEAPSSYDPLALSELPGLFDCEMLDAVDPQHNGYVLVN

STK36 = STK36 (Homo sapiens, UniProt Q9NRP7)
TLK2 = TLK2 (Homo sapiens, UniProt Q86UE8)
TNK2 = TNK2 (Homo sapiens, UniProt Q07912)
TNNI3K = TNNI3K (Homo sapiens, UniProt Q59H18)
TNNI3K, sequence (Q59H18 whole entry): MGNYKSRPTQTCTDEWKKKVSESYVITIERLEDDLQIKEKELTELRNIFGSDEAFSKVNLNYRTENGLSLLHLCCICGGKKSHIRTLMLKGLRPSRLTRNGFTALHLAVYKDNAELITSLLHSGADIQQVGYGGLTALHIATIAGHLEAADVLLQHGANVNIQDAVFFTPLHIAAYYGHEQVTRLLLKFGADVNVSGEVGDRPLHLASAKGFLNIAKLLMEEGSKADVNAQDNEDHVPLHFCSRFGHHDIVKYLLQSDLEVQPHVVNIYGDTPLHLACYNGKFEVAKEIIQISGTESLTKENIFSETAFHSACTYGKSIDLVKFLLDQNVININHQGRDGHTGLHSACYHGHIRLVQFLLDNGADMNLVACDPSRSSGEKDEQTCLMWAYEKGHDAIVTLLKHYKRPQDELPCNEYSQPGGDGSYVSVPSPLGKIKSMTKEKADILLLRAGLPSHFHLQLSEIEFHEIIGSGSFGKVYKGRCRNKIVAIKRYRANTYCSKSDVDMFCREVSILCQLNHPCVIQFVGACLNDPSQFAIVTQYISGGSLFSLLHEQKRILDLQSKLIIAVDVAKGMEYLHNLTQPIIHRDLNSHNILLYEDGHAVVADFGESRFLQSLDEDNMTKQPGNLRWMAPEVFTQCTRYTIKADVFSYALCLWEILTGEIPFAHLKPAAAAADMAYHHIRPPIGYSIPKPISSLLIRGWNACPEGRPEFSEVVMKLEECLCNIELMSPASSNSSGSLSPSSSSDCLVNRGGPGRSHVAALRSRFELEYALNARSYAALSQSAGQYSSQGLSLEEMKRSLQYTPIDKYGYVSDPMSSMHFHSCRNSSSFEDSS

YANK1 = YANK1 (Homo sapiens, UniProt Q8WU08)
ZAK = ZAK (Homo sapiens, UniProt Q9NYL2)
ZAP70 = ZAP70 (Homo sapiens, UniProt P43403)
p38-alpha = p38-alpha (Homo sapiens, UniProt Q16539)
p38-alpha, sequence (Q16539 whole entry): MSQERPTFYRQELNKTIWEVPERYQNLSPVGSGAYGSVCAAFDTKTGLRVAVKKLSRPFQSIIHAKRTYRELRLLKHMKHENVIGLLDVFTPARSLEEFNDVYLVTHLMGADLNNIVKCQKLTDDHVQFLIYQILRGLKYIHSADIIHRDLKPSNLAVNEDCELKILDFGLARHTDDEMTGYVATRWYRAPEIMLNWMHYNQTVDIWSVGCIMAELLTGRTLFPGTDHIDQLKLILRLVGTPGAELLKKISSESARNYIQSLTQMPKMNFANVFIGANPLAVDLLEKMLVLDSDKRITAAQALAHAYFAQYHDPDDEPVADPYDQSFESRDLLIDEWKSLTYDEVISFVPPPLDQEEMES

p38-beta = p38-beta (Homo sapiens, UniProt Q15759)
[3] = read-out: CPT-1-70-1 (1uM) % control
[4] = read-out: CPT-1-70-1 (1μM) % control
[5] = read-out: HYJ-2-002-1 (1uM) % control
[6] = read-out: HYJ-2-002-1 (1μM) % control

CN1CCN(c2ccc(Nc3nc(Oc4ccc(NC(=O)CCl)cc4)c4cc[nH]c4n3)cc2)CC1 [CPT1-70-1]
remaining activity at 1 µM [1, 3]: 46% | remaining activity at 1 µM [2, 3]: 0.75% | remaining activity at 1 µM (NEK3; [4]): 68% | remaining activity at 1 µM (NIM1; [4]): 100% | remaining activity at 1 µM (PAK6; [4]): 74% | remaining activity at 1 µM (PDGFRA; [4]): 64% | remaining activity at 1 µM (PDGFRB; [4]): 6.9% | remaining activity at 1 µM (PIK3CA(E542K); [4]): 100% | remaining activity at 1 µM (PLK1; [4]): 100% | remaining activity at 1 µM (PRKCH; [4]): 100% | remaining activity at 1 µM (PRKX; [4]): 100% | remaining activity at 1 µM (PRP4; [4]): 90% | remaining activity at 1 µM (RET(M918T); [4]): 13% | remaining activity at 1 µM (RET(V804M); [4]): 2.2% | remaining activity at 1 µM (RIPK1; [4]): 0.15% | remaining activity at 1 µM (RIPK4; [4]): 100% | remaining activity at 1 µM (RSK3; read-out: CPT-1-70-1 (1μM) % control, Kin.Dom.1-N-terminal): 66% | remaining activity at 1 µM (RSK3; read-out: CPT-1-70-1 (1μM) % control, Kin.Dom.2-C-terminal): 100% | remaining activity at 1 µM (SBK1; [4]): 10% | remaining activity at 1 µM (SGK3; [4]): 74% | remaining activity at 1 µM (SIK2; [4]): 57% | remaining activity at 1 µM (STK36; [4]): 78% | remaining activity at 1 µM (TLK2; [4]): 100% | remaining activity at 1 µM (TNK2; [4]): 100% | remaining activity at 1 µM (TNNI3K; [4]): 100% | remaining activity at 1 µM (YANK1; [4]): 100% | remaining activity at 1 µM (ZAK; [4]): 71% | remaining activity at 1 µM (ZAP70; [4]): 0.2% | remaining activity at 1 µM (p38-alpha; [4]): 100% | remaining activity at 1 µM (p38-beta; [4]): 100%

CCN1CCN(Cc2ccc(NC(=O)c3ccc(C)c(CCc4cnc5[nH]ccc5c4OC)c3)cc2C(F)(F)F)CC1 [HYJ-2-002-1]
remaining activity at 1 µM [1, 5]: 9% | remaining activity at 1 µM [2, 5]: 93% | remaining activity at 1 µM (NEK3; [6]): 100% | remaining activity at 1 µM (NIM1; [6]): 100% | remaining activity at 1 µM (PAK6; [6]): 100% | remaining activity at 1 µM (PDGFRA; [6]): 0.65% | remaining activity at 1 µM (PDGFRB; [6]): 0% | remaining activity at 1 µM (PIK3CA(E542K); [6]): 100% | remaining activity at 1 µM (PLK1; [6]): 100% | remaining activity at 1 µM (PRKCH; [6]): 100% | remaining activity at 1 µM (PRKX; [6]): 78% | remaining activity at 1 µM (PRP4; [6]): 100% | remaining activity at 1 µM (RET(M918T); [6]): 0.95% | remaining activity at 1 µM (RET(V804M); [6]): 1% | remaining activity at 1 µM (RIPK1; [6]): 8.2% | remaining activity at 1 µM (RIPK4; [6]): 100% | remaining activity at 1 µM (RSK3; read-out: HYJ-2-002-1 (1μM) % control, Kin.Dom.1-N-terminal): 42% | remaining activity at 1 µM (RSK3; read-out: HYJ-2-002-1 (1μM) % control, Kin.Dom.2-C-terminal): 73% | remaining activity at 1 µM (SBK1; [6]): 93% | remaining activity at 1 µM (SGK3; [6]): 100% | remaining activity at 1 µM (SIK2; [6]): 34% | remaining activity at 1 µM (STK36; [6]): 2.2% | remaining activity at 1 µM (TLK2; [6]): 97% | remaining activity at 1 µM (TNK2; [6]): 4.1% | remaining activity at 1 µM (TNNI3K; [6]): 6.6% | remaining activity at 1 µM (YANK1; [6]): 100% | remaining activity at 1 µM (ZAK; [6]): 3.9% | remaining activity at 1 µM (ZAP70; [6]): 69% | remaining activity at 1 µM (p38-alpha; [6]): 0.25% | remaining activity at 1 µM (p38-beta; [6]): 0.35%

From publication doi:10.1101/2020.06.11.145995v1 (biorxiv, 2020)
